Laboratory results taken from patent US5534242A, “Lidocaine-vasoconstrictor aerosol preparation” (priority 1995, dated 1996).
Counter-ions that a name gives are not always drawn.

Assays:
[1] = Solubilization of vasoconstricting agents in HFC propellants with lidocaine base; stability of the formulations; details: for Behaviour of ethanol solution on addition of HFC-134a: ethanol solution also containing lidocaine free base; for Solubility in lidocaine base/HFC-134a solution: base form dissolved in ethanol (Formulations 11 and 12)
Description: The formulations of this invention can be manufactured in different ways. In one method, the lidocaine and vasoconstricting agent are dissolved in the organic solvent and place in the aluminum canister which is then capped and pressure filled with propellant. Where an organic solvent is not required, the lidocaine and vasoconstricting agent are dissolved in the propellant which is then pressure filled into the closed empty aluminum canister.
These formulations are presented for exemplary purposes only and by no means limit the scope and content of the invention defined by the claims.

nasal mucosa = details: cited from earlier work
[2] = cited from earlier work

CCN(CC)CC(=O)Nc1c(C)cccc1C [Lidocaine base, 2-(diethylamino)-2',6'-acetoxylidide]
Behaviour of ethanol solution on addition of HFC-134a ([1]; HFC-134a): remained in solution | Vasoconstriction of the mucosa (nasal mucosa): does not vasoconstrict the mucosa

CNC[C@H](O)c1cccc(O)c1 [phenylephrine hydrochloride, (R)-3-hydroxy-alpha-[(methylamino)methyl]benzene methanol hydrochloride]
Behaviour of ethanol solution on addition of HFC-134a ([1]; HFC-134a): remained in solution | Behaviour of ethyl alcohol solution on addition of HFC-134a (2.5% w/w in ethyl alcohol, HFC-134a, no lidocaine): precipitated out of solution | Solubility in HFC propellants (HFC-134a and HFC-227, no lidocaine): insoluble | Additional ethyl alcohol required to maintain a solution in HFC-134a in the absence of lidocaine base (HFC-134a, versus with lidocaine base, almost 50% more): ~50% | Solubility of combination with benzyl alcohol in HFC-134a (benzyl alcohol + HFC-134a, no lidocaine): not soluble | Solubility in benzyl alcohol (benzyl alcohol, HFC-134a added, no lidocaine): remained in solution | Solubility in diethylene glycol (diethylene glycol): soluble | Solubility of combination with diethylene glycol in HFC-134a (diethylene glycol + HFC-134a, no lidocaine): not soluble | Solubility in propylene glycol (propylene glycol): soluble | Solubility of combination with propylene glycol in HFC-134a (propylene glycol + HFC-134a, no lidocaine): not soluble

CNC[C@H](O)c1cccc(O)c1 [phenylephrine base]
Clear and stable solution with phenylephrine base substituted for the hydrochloride in formulation 9 ([1]; diethylene glycol, lidocaine base, HFC-134a): Clear and stable solutions

CC(N)C(O)c1ccccc1 (stereo not shown) [phenylpropanolamine]
Solubility in lidocaine base/HFC-134a solution [1]: readily soluble

COC(=O)[C@H]1[C@@H](OC(=O)c2ccccc2)C[C@@H]2CC[C@H]1N2C [Cocaine]
Dose that may cause systemic toxicity ([2]; even small doses): approximately 30 mg | Tolerability ([2]; most patients): well tolerated by most patients

OCc1ccccc1 [Benzyl alcohol]
Solubility of organic solvent in HFC-134a (HFC-134a, no lidocaine): not soluble

CNC[C@H](O)c1cccc(O)c1 [Phenylephrine]
Decongestion of the nasal mucosa (nasal mucosa): excellent decongestion

COc1ccc(OC)c(C(O)C(C)N)c1 (stereo not shown) [methoxamine]
Solubility in lidocaine base/HFC-134a solution [1]: readily soluble
